The results in this text go back to patent US11147219B2, “Methods and systems for growing plants using silicate-based substrates, cultivation of enhanced photosynthetic productivity and photosafening by utilization of exogenous glycopyranosides for endogenous glycopyranosyl-protein derivatives, and formulations, process and systems for the same” (Innovation Hammer, LLC, priority 2011, dated 2021).

Entries after “also recorded” stand apart in the source; their conditions may differ.

One experiment relates to plants. The experiment in a line: Relative potency of glycosides on plants (stated, no method). The following applies: in vivo.
In another experiment the test system is Radish seedlings. The experiment in a line: Radish seedling assay, immersion in nutrient solution with α-mannosides. The format is in vivo. The following applies: for growth response compared to Nutrient Control (visual): 1 mM TAM, 100 μM MP, 25 μM to 500 μM MeM, 10 μM APM. The protocol:
Plants were cultured in research facilities and consistency of response to treatments was achieved by supplementation with chelated calcium and manganese. All plants were regularly given modified Hoagland water-culture nutrients. […] Controls were placed in the same location and all plants were given the same irrigation, fertilizers, and handling, but without the experimental compounds. Plants were matched to controls and treated within a week of emergence of cotyledon and true leaves. The performance of compounds was evaluated by comparing means of individual dry weights of shoots and roots. Statistics applied two-tailed Student's t-test with p-values significant within 95% confidence intervals. Counts of populations are “n” values and standard error is denoted “±SE.” Specialty chemicals included the following: tetramethyl-β-D-glucoside (TMG); tetraacetyl-D-glucopyranose (TAG); pentaacetyl-α-D-mannopyranose (MP); p-amino-phenyl-α-D-mannoside (APM); methyl-α-D-mannoside (MeM) and methylglucoside (MeG). MPG was synthesized. 2,3,4,6-tetra-O-acetyl-D-mannopyranose (αβ) was utilized. As required, MP and APM were dissolved in a lower aliphatic alcohol prior to dilution in aqueous media.
Assay—Radish seedlings were treated with α-mannosides after emergence of radicles. Seedlings were matched and transferred to Nutrient Control or treatment solutions. Assays were maintained under environmental conditions as follow: Photosynthetically active radiation 100 μEin·m^−2·sec^−1, diel cycle of 16:8 h light:dark, 26:26° C.

The next experiment has as its system Crocus. The experiment in a line: Rooted Crocus cultivated in 700 μm silicate microbeads, treated with formulation. The format is in vivo. The conditions noted are these: 0.3 mM APM with 3 ppm Mn, 6 ppm Ca; Crocus in 700 μm microbeads. The protocol:
Individual plants were started from seeds, bulbs, or vegetative clones, inserted into containers of pre-moistened microbeads. Seedlings included ryegrass and corn; bulbs were of Crocus and paperwhite narcissus; and vegetative cuttings were from Coleus. Seeds generally germinated and were selected according to day of emergence of first roots as control and treatment sets. Roots were treated thereafter.
Plants were cultivated under controlled environmental conditions as follow: GE Ecolux® plant and aquarium F40T12 fluorescent illumination, photosynthetically active radiation (PAR) of 100 μEin·m^−2·s^−1, diel cycle of 16:8 h light:dark, 28:26° C., 10% to 20% relative humidity. Indoxyl glycopyranoside (IG) was formulated in water and applied and controls were given equal volumes of water without IG. […] Clear plastic 500 cc containers, perforated for drainage, were filled to a depth of 10 cm with up to 900 grams of microbeads each. Initially, basal plates of bulbs were immersed 1 cm into moistened 700 μm nmd silicate beads to initiate rooting. […] Controls were treated with addition of 0.1 ml water to their media. After 8 h uptake of the treatments, fertigation resumed in a manner consistent with pH-control. […]
For all experiments, at 7 d to 14 d after treatment, microbeads were saturated with water. […] For paperwhites, volumes of entire roots were measured by displacement of water in glass beakers.

Experiment [1] deals with radish "Cherry Bell" Raphanus sativus L. The experiment in a line: Greenhouse foliar treatment of radish, root dry weight. The experiment is classed as in vivo. The following applies: for active concentration applied for growth response: foliar, radish. The protocol:
Plant responses to formulations of an alkyl-α-D-mannopyranose and an electron donating-aryl-α-D-mannopyranose were consistent with preferred binding tendencies to displace glucose from storage. Plants were maintained in automated greenhouses controlled for temperature, light and circulation. Environmental conditions during the course of the studies averaged 13:11 hour L:D photoperiod, 25°:20° C. day:night and 20% to 80% relative humidity. Sunlight was supplemented with electrical illumination to achieve photosynthetically active radiation levels ranging from 350 to 600 μmol photons·m^−2·s^−1 at the level of the phylloplane. Solutions for treated and control plants were applied within an hour, otherwise subjecting all plants to identical conditions consistent with good laboratory practices. Solutions applied to controls included nutrients and surfactants identical to the treatment solution, but without the active compound. General supplementation of foliar formulations included the following: 10-100 mM ammonium salt; 1-6 ppm manganese, Mn-EDTA; and 5-10 ppm calcium, Ca-EDTA. For example, foliar solutions of 0.3 mM p-aminophenylmannopyranoside, hereafter referred to as APM, were supplemented with 23 mM ammonium sulfate, (NH4)2SO4, 3 ppm Mn and 6 ppm Ca; and Nutrient Control contained 23 mM (NH4)2SO4, 3 ppm Mn and 6 ppm Ca. The foliar concentrations of Mn and Ca were higher than those specified previously because of the low volumes of foliar applications relative to hydroponic root immersion volumes, and they were particularly effective in combination with foliar applications of compounds because they supported high rates of productivity in the treated plants without phytotoxicity. Compounds for experimentation included the following: methyl-α-D-mannopyranoside (MeM), APM, and methyl-α-D-glucopyranoside (MeG). All foliar solutions were formulated with 1 gm/liter surfactant blend consisting of 0.5 gram DowCorning Q5211 dispersed into 1.5 grams BASF Pluronic L62. As a matter of course, untreated controls that foliar nutrients and wetting agents were not introducing artifacts. The standard volume for foliar application of experimental treatments was 200 liters/hectare. Identical volumes of foliar spray per tray of plant cultures were applied mechanically in a single pass. Controls were placed in the same location and given identical irrigation and handling as the treated plants. To compare the effects of treatments under tightly controlled conditions, plants were cultured, harvested, cleaned and weighed as per previously described methods. Treated plants were statistically analyzed in comparisons against controls. Each survey population held sufficient replicate sample numbers to make meaningful statistical analyses utilizing SPSS® software. Significance was determined at the 95% confidence interval (CI) of the difference. Counts of population numbers are denoted as “n” values. For experiments, radish “Cherry Bell” Raphanus sativus L., a root crop was planted and treated. […] Therefore, least concentrations were selected for statistical experimentation; and 200 l/ha foliar 1 mM MeM or 0.3 mM APM in nutrient-supplemented formulations were applied to 5 cm tall sprouts; while, Nutrient Controls were given foliar applications of identical solutions without the α-D-glycopyranosides; and no foliar solutions were applied to untreated controls which were otherwise identically cultivated and irrigated. For our quantification experiments, when improvements of root productivity over those of nutrient controls were visibly discernible 12 d after treatment, all populations of controls and treatments were harvested, and individual dry weights of treatment and control populations were analyzed.

In the next experiment the test system is radish. The experiment in a line: Foliar application to radish grown hydroponically in 700 μm microbeads. The experiment is classed as in vivo. The conditions noted are these: with 3 ppm Mn, 6 ppm Ca. The protocol: Approximately 200 grams of beads/cell filled individual 100 cc cells of plastic flats. Roots of radish are cultivated hydroponically by immersion of roots in 700 μm nmd shot, pre-moistened with buffered nutrient solution that included soluble Mn and Ca, and plants were allowed to grow for 72 h prior to treatment with aminophenyl-α-D-mannopyranoside.
4-aminophenyl-α-D-mannopyranoside was dissolved in water (APM needs first to be solubilized in a small volume (1 ml) of ethanol prior to being added into water) with 3 ppm Mn as EDTA, 6 ppm Ca as EDTA, 10% isopropyl alcohol and 1.5 g/L Pluronic L-62. A solution of the formulation was applied to radish foliage. When compared to an identical control formulation without the aminophenyl-α-D-mannopyranoside, the above formulation provided a 20% root increase. For aminophenyl-α-D-mannopyranoside, the proper dose for radish is between 1 to 100 μg per plant and preferably between 5 to 50 μg per plant. This is the equivalent to an application of 75 to 100 gallons per acre at a preferred volume of 100 gallons per acre of up to 2 gm/liter.

The test system of experiment [2] is radish (Raphanus sativus L., cultivar "Cherry Bell"). In words: Radish seed germination and seedling growth, nutrient omission media. The experiment is classed as in vivo. The protocol: Treatment of seeds and seedlings by aqueous solutions is exemplified by mannosides supplemented with soluble divalent cations in complete mannosides formulations. […] Benefits of such exemplary seed priming methods are as follows: Germination and early growth of radish (Raphanus sativus L., cultivar “Cherry Bell”) and Swiss Chard (Beta vulgaris subspecies cicla L., cultivar “Fordhook® Giant”) were tested for response to α-mannosides supplemented with Ca^2+ and/or Mn^2+. Rapid assays of radish seed germination and growth used hydroponic cultures with no solid medium; longer experiments with Swiss Chard used a 2-5 mm substratum of 700 μm diameter glass microbeads. Neutralization of glass microbeads may be undertaken with dilute mildly acidic solution titrated to pH 6; for example, with mineral acids such as hydrochloric acid, sulfuric acid, nitric acid, and the like; organic acids such as uronic, citric, malic, lactic, salicylic, ascorbic, succinic, oxaloacetic, ketoglutaric, fumaric acids, and amino acids, and the like; artificial biological buffering agents such as TRIS, BIS TRIS, MES, MOPS, HEPES, and the like; fertilizers; and most preferably, phosphates; and the most highly preferred compounds are combinations of compounds in a pH 6-buffer that provide major nutrients for plants, such as MAP with DKP or DAP with MKP; and the like. When test medium was added, the glass microbeads formed an even layer, drawing liquid to the surface by capillary action. Seeds were examined to exclude aberrantly large, small, or damaged seeds, and were placed on the surface of the substratum. For experiments using post-germination seedlings, seeds were germinated in deionized water prior to exposure to nutrient media. A seed with an emerged radicle >1 mm was recorded as germinated, and germinated seeds were counted daily, until 95% germination. There was no visible evidence of either desiccation or waterlogging effects. Glass microbeads were removed by immersion and agitation in water, or manually with fine forceps. Harvested plants were oven-dried to determine dry weight. Treatment and control solutions were prepared by dissolving nutrients in deionized ultrapure water.
Growth media were based on omission or inclusion of glycosides and targeted divalent cations. Triose is the abbreviation for α-1,3-α-1,6 mannotriose) and MEM is methyl-α-D-mannoside. Terminology used herein indicates the omission or inclusion of nutrients: 000=control medium with no glycoside, Ca^2+ or Mn^2+; MeMOO=medium with MeM, but no Ca^2+ or Mn^2+; MeMCaO=medium with MeM and Ca^2+, but no Mn^2+, OCaMn=medium with no MeM, but with Ca^2++Mn^2+; and so on. Similar terminology is used for media containing triose. Results cited are means±SE. […]

Regarding `OC[C@H]1O[C@H](O[C@H]2[C@H](O)[C@@H](O)C(O)O[C@@H]2CO)[C@H](O)[C@@H](O)[C@@H]1O` (mixture of isomers) [maltose], in the experiment on plants, the “potency relative to alpha-MeG” value is on record as “lower potency” and the “potency relative to beta-MeG” value is recorded as 9 ×.

In the case of `Nc1ccc(O[C@H]2O[C@H](CO)[C@@H](O)[C@H](O)[C@@H]2O)cc1` [APM, 4-amino-phenyl-α-D-mannopyranoside], the “mean dry weight of whole plants” value was 9.4 mg in the experiment on Radish seedlings (5 μM, 48 h); 10.3 mg in the experiment with Radish seedlings (10 μM, 48 h); 11 mg with Radish seedlings (100 μM, 48 h). Also, the “difference of mean dry weight from the Nutrient Control” value in the experiment with Radish seedlings (5 μM, 48 h, p=0.06) is recorded as “not significantly different; also recorded: no significant difference”. The “enhancement of mean dry weight over Nutrient Control” value in the experiment with Radish seedlings (100 μM, 48 h) worked out at 10%. Also, the “growth response compared to Nutrient Control (visual)” value with Radish seedlings (48 h) is “advanced growth”. In addition, the “root and shoot development / productivity compared to Control” value in the experiment with Crocus is “clearly advanced productivity; also recorded: advanced root and shoot development”. Moreover, in experiment [1] (foliar 0.3 mM with nutrients), the “root mean dry weight over the Nutrient Control” value was “significant (n=72; p=0.003) increase”. Also, the “root mean dry weight increase over controls” value in experiment [1] (foliar 0.3 mM, 200 l/ha, harvest 12 d after treatment, n=72, p=0.003) is “approximately 20%”. Further, the “active concentration applied for growth response” value in experiment [1] is listed as 0.3 mM. In addition, in the experiment with radish, the “root increase compared to identical control formulation” value is on record as 20%.

In the case of `CC(=O)OC[C@H]1O[C@H](OC(C)=O)[C@@H](OC(C)=O)[C@@H](OC(C)=O)[C@@H]1OC(C)=O` [MP, pentaacetyl-α-D-mannopyranose], in the experiment on Radish seedlings (100 μM, 48 h), the “mean dry weight of whole plants” value turned out to be 8.2 mg. Besides, in the experiment on Radish seedlings (48 h), the “growth response compared to Nutrient Control (visual)” value is on record as “advanced growth responses”. The “potency compared with the mixed anomers” value with Radish seedlings (effective doses 100 μM MP and 1 mM TAM) is on record as “higher potency”.

With `CO[C@H]1O[C@H](CO)[C@@H](O)[C@H](O)[C@H]1O` [MeG, methyl-α-D-glucopyranoside, reference compound], the “productivity over nutrient and untreated controls” value in experiment [1] (foliar 129 mM with Ca, Mn and ammoniacal nitrogen) is reported as “consistently increased productivities”. The “active concentration applied for growth response” value in experiment [1] is given as 129 mM.

As for `CC(=O)OC[C@H]1OC(O)[C@@H](OC(C)=O)[C@@H](OC(C)=O)[C@@H]1OC(C)=O` (stereo partly drawn) [TAM, 2,3,4,6-tetra-O-acetyl-D-mannopyranose (αβ)], the “mean dry weight of whole plants” value in the experiment with Radish seedlings (100 μM, 48 h) came out at 8.1 mg; in the experiment on Radish seedlings (1 mM, 48 h), 8.8 mg. In addition, the “difference of mean dry weight from the Nutrient Control” value with Radish seedlings (100 μM, 48 h, p=0.11) is recorded as “no significant difference”. The “growth response compared to Nutrient Control (visual)” value in the experiment with Radish seedlings (48 h) is “advanced growth responses”.

Turning to `OC[C@H]1O[C@H](OC[C@H]2OC(O)[C@@H](O)[C@@H](O[C@H]3O[C@H](CO)[C@@H](O)[C@H](O)[C@@H]3O)[C@@H]2O)[C@@H](O)[C@@H](O)[C@@H]1O` (stereo partly drawn) [triose, α-1,3-α-1,6 mannotriose], the “seedling growth compared with no triose” value in experiment [2] (1 μM triose, lacking Ca2+) is “comparable to seedlings grown with no triose”. Also, the “mean dry weight compared with medium with no triose” value in experiment [2] (0.3, 1 or 10 μM triose with Mn2+ and Ca2+, 1 day treatment, second day) was “significantly greater”. Moreover, the “concentration at which no growth enhancement was observed” value in experiment [2] (radish seedlings, complete media) is reported as “less than 0.3 μM”.
